Source: patent publication US12043602B2, “Fendiline derivatives” (The Board of Regents of the University of Texas System, priority 2019, dated 2024)
Several values for one entry are separate records, joined by “and”; a condition that tells them apart may be missing. Equal values may be shown once. Entries after “also recorded” stand apart in the source; their conditions may differ. Read-outs that look alike come from different tables or passages of the source.

Columns and labels:
MiaPaCa-2 tumors = assay: In vivo tumor growth assay (xenograft); set-up: species or system nu/nu mice; details: for growth of MiaPaCa-2 xenografts: intraperitoneally, once daily 5 days on / 2 days off, doses 1-12.5 mg/kg; for minimum effective dose on tumor growth relative to fendiline: MiaPaCa2 xenografts in nude mice
Protocol: In Vivo Tumor Growth Assay. All animal studies were performed under an Institutional Animal Care and Use Committee (IACUC) approved animal protocol (AWC-15-0101), in accordance with the National Institutes of Health Guide for the Care and Use of Laboratory Animals. Early passage MiaPaCa-2 cells were harvested, and 2×10^6 cells were implanted into the right flanks of female nu/nu mice. The animals were randomized into control and treated groups (10 mice per group). Tumor volume (V) was measured with an external caliper every 3-4 days and it was calculated as V=0.52 (length×width2). Compound treatment was initiated when the tumor sizes reached 100 mm3. Compounds (12.5 mg/kg) were injected daily intraperitoneally for 5 days, with 2 days of no treatment in between. All treatments were continued until any of the subcutaneous tumors reached 1500 mm3 in volume, when all the animals were sacrificed, and the tumors removed.
Early passage BxPC-3 or MIAPaCa-2 cells were harvested, and 2-3X106 cells were implanted into the right flanks of nu/nu mice. The animals were randomized into control and treated groups (10 mice per group). Tumor volume (V) was measured with an external caliper every 3-4 days and it was calculated as V=0.52 (length×width2). Drug treatment was initiated 4 days after tumor implantation. Drugs were injected daily intraperitoneally (at doses indicated) for 5 days, with 2 days of no treatment in between. All treatments were continued until any of the subcutaneous tumors reached 1500 mm3 in volume or for 6 weeks (whichever was first), when all the animals were sacrificed and the tumors removed.
Next the effect of the selected PMLIs on the growth of oncogenic KRAS expressing MiaPaCa-2 cells implanted subcutaneously into the flanks of nu/nu immunosuppressed mice was determined. […] The animals were randomized into control and PMLI-treated groups (10 mice per group). Treatment was initiated when the tumors reached a mean volume of 100 mm^3. PMLIs were tested at 12.5, 7.5, 5, 2.5 and 1 mg/kg doses, administered once daily intraperitoneally for 5 days, with 2 days of no treatment in between for the duration of the experiment. […] There was no observed toxicity detected in any of the compound-treated groups during the experiment and, accordingly, there was no significant difference in the body weight of the animals in the different groups.

[1] = tested on: MOH (Mut) pancreatic tumor cells; assay: CyQUANT proliferation assay; type: cell-based
Summary of the method: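 Seeding came first, then a 24 h attachment period. Next, various drug concentrations (or 0.1% DMSO) were applied in fresh RPMI 1640 containing 10% FBS. Following 72 h at 37° C, cell number was quantified by CyQUANT fluorescence.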

[2] = tested on: Ishikawa (WT) endometrial tumor cells; assay: CyQUANT proliferation assay; type: cell-based; set-up: key to IC50 proliferation Ishikawa (WT): NE—Not efficacious; details: for IC50: Homo sapiens, Ishikawa
Protocol: (§1) Madine Darby Canine Kidney epithelial cells (MDCK) stably co-expressing mGFP-tagged full length oncogenic mutant K-Ras (GFP—K-RASG12V) or mGFP-LactC2 (peptide probe for phosphatidylserine) and mCherry-tagged to the amino acids 179-189 of H-RasC181S, C184S (mCherry-CAAX, localizes primarily to endomembranes) were grown in DMEM-high glucose/sodium pyruvate/10% FBS. The medium was supplemented with 1× Penicillin/Streptomycin for fluorescence microscopy assays, to avoid any microbial contamination from the test compounds added. KLE and Hec50 cells were maintained in DMEM-F-12 medium supplemented with 10% FBS. Hec-1A and Hec-1B cells were grown in McCoy's 5a medium supplemented with 10% FBS. ESS-1 cells were grown in RPMI 1640 medium supplemented with 20% FBS. MPanc96 cells were grown in DMEM supplemented with 10% FBS, MiaPaCa-2 cells in DMEM supplemented with 10% FBS and 2.5% horse serum and all other cell lines were grown in RPMI 1640 supplemented with 10% FBS. All cancer cell media were supplemented with ×Penicillin/Streptomycin. All cell lines were grown at 37° C. with 5% CO2.
(§2) Cells were seeded in 96-well plates. After 24 h, fresh growth medium supplemented with 0.1% vehicle (DMSO), or various concentrations of drugs was added and cells were grown for 72 h. Cell numbers were quantified using the CyQUANT® Cell Proliferation Assay Kit (Molecular Probes, Life Technologies), according to the manufacturer's protocol. Fluorescence measurement was used as a measure of live cell number.

[3] = tested on: BxPC-3 (WT) pancreatic tumor cells; assay: CyQUANT proliferation assay; type: cell-based; details: Homo sapiens
Protocol: as §1, §2

[4] = tested on: NCI-H23 (Mut) lung tumor cells; assay: CyQUANT proliferation assay; type: cell-based; details: Homo sapiens
Protocol: as §1, §2

[5] = tested on: HPAC (Mut) pancreatic tumor cells; assay: CyQUANT proliferation assay; type: cell-based; details: Homo sapiens, HPAC, 72 h
Protocol: as §1, §2

[6] = tested on: MDCK cells co-expressing GFP-K-RASG12V and mCherry-CAAX; assay: Cytotoxicity in mislocalization screen (death of all cells in well); details: drug caused death of all cells in well at 30 μM
mGFP-K-RASG12V = mGFP-K-RASG12V (Homo sapiens (Human), UniProt P01116, G12V); assay: K-Ras mislocalization assay (confocal microscopy, Manders coefficient); type: cell-based; set-up: key to Emax: Manders coefficient: fraction of mCherry-CAAX co-localizing with GFP-K-Ras; details: for IC50 / Emax: MDCK cells; for Emax: maximal effect, Manders coefficient
Summary of the method: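 MDCK cells stably co-expressing mGFP-K-RASG12V and mCherry-CAAX (endomembrane marker) treated with compound or 0.1% DMSO for 48 h, fixed in 4% paraformaldehyde, imaged by confocal microscopy. Mislocalization quantified as the fraction of mCherry-CAAX co-localizing with mGFP-K-RASG12V (Manders coefficient) after 8-bit thresholding.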

[7] = 72 h, read-out: IC50 proliferation MOH (Mut)
[8] = Table 11, pancreatic, read-out: IC50 (μM) MOH (Mut)
[9] = Table 11, endometrial, read-out: IC50 (μM) Ishikawa (WT)
[10] = BXPC-3, 72 h, read-out: IC50 proliferation BxPC-3 (WT)
[11] = BXPC-3, Table 11, pancreatic, read-out: IC50 (μM) BxPC-3 (WT)
[12] = NCI-H23, 72 h, read-out: IC50 proliferation NCI-H23 (Mut)
[13] = NCI-H23, Table 11, lung, read-out: IC50 (μM) NCI H23 (Mut)
[14] = 48 h treatment, read-out: IC50 (μM), KRASG12V mislocalization

SMILES | IC50 [1, 7] [µM] | IC50 [1, 8] [µM] | IC50 proliferation Ishikawa (WT) ([2]; 72 h) | IC50 [2, 9] [µM] | IC50 [3, 10] [µM] | IC50 [3, 11] [µM] | IC50 [4, 12] [µM] | IC50 [4, 13] [µM] | minimum effective dose on tumor growth relative to fendiline (MiaPaCa-2 tumors) | IC50 [5] [µM] | Cytotoxic at 30 μM [6] | IC50 (mGFP-K-RASG12V; [14]) [µM] | Emax (mGFP-K-RASG12V; 48 h) | further results
CC(NCCC(c1ccccc1)c1ccccc1)c1ccccc1 (centres unmarked) [Fendiline] | 11.1 | 11.1 | NE | > 30 | 28.6 | 28.6 ± 5.9 | 11.4 | 11.4 ± 1 |  |  |  |  |  | MiaPaCa2 xenograft size (MiaPaCa-2 tumors; 12.5 mg/kg intraperitoneally, days 28, 32 and 35): significantly smaller; growth of MiaPaCa-2 xenografts (MiaPaCa-2 tumors): inhibits the growth
COc1ccc([C@@H](C)N(CC=C(c2ccccc2)c2ccccc2)CCN2CCCC2)cc1 [NY0331, (R)-N-(1-(4-methoxyphenyl)ethyl)-3,3-diphenyl-N-(2-(pyrrolidin-1-yl)ethyl)prop-2-en-1-amine] | 3.55 | 4 |  |  |  |  |  |  | more potent than fendiline | 5.15 | Yes | 0.3 | 0.85 ± 0.04 | tumor growth at 1 mg/kg (MiaPaCa-2 tumors; 1 mg/kg intraperitoneally): significantly inhibited tumor growth; growth of MiaPaCa-2 xenografts (MiaPaCa-2 tumors; listed as 12h): suppressed; also recorded: strikingly decreased the rate of growth; fold potency loss / decreased potency (mGFP-K-RASG12V; versus 12f (NY0244)): 3 fold
COc1ccc([C@@H](C)N(CC=C(c2ccccc2)c2ccccc2)CCN2CCN(C)CC2)cc1 [NY0244, (R)-N-(1-(4-methoxyphenyl)ethyl)-N-(2-(4-methylpiperazin-1-yl)ethyl)-3,3-diphenylprop-2-en-1-amine] | 3.67 | 3.7 | NE | > 30 | 5.73 | 5.7 | 3.81 | 3.8 | more potent than fendiline | 5.55 | Yes | 0.1 | 0.75 ± 0.01 | Emax (mGFP-K-RASG12V; 48 h, listed as 12f): 0.75 and 0.75 ± 0.01; fold increase in KRAS mislocalization potency (mGFP-K-RASG12V; versus hit 7): 5 fold
COc1ccc([C@@H](C)N(CC=C(c2ccccc2)c2ccccc2)CCCN2CCN(C)CC2)cc1 [NY0335, (R)-N-(1-(4-methoxyphenyl)ethyl)-N-(3-(4-methylpiperazin-1-yl)propyl)-3,3-diphenylprop-2-en-1-amine] | 3.77 | 3.8 |  | 11 | 5.34 | 5.3 | 4.14 | 4.1 |  | 5.81 | Yes | 0.02 |  | growth of MiaPaCa-2 xenografts (MiaPaCa-2 tumors; listed as 22): suppressed; also recorded: strikingly decreased the rate of growth; IC50 (mGFP-K-RASG12V; 48 h, read-out: KRAS mislocalization potency): 0.02 µM; Emax (mGFP-K-RASG12V; 48 h, listed as 22): 0.81; Emax (mGFP-K-RASG12V; 48 h, listed as NY335): 0.81 ± 0.01; IC50 ([2]; 72 h, read-out: IC50 proliferation Ishikawa (WT)): 11 µM
